From patent US9730913B2 (THE JOHNS HOPKINS UNIVERSITY, priority 2011, dated 2017)
Values after ≈ are worked out from the molar mass of the structure shown. Values joined by “and” are separate entries in the source; they are usually repeats but may differ in a detail not shown here. Equal values may be shown once.

Key:
[1] = Solubility; format: physicochemical
[2] = Microsomal stability (T1/2); format: in vitro ADME; conditions: microsomes
[3] = target: HSA (Homo sapiens, UniProt P02768); experiment: HSA binding (Kd)
Chain of HSA (P02768 25-609): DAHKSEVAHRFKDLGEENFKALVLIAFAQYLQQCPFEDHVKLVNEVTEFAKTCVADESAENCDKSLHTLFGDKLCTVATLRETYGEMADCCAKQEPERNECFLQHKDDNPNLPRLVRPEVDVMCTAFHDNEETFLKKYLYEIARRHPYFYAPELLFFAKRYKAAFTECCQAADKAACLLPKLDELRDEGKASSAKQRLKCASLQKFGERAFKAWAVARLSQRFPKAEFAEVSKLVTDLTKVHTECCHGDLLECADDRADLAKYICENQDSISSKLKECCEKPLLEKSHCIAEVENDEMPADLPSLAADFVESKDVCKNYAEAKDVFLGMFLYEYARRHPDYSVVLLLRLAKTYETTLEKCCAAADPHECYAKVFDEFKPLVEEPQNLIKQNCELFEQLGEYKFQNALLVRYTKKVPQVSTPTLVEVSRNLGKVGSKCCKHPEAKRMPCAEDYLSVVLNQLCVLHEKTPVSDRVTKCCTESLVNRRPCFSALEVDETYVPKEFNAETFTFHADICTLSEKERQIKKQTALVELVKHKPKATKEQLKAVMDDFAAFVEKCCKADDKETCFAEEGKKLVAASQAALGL

[4] = target: TEM-1 (Escherichia coli, UniProt P62593); experiment: TEM-1 binding enthalpy (ΔH)
Chain of TEM-1 (P62593 24-286 limits assumed): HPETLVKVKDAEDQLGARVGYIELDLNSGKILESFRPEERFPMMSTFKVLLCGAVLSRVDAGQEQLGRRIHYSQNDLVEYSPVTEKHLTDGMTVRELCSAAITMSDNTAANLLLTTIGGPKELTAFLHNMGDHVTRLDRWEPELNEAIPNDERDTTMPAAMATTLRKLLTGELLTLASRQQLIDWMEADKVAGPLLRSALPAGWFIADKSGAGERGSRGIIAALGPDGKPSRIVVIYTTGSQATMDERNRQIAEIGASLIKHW

[5] = target: AmpC β-lactamase (Escherichia coli, UniProt P00811); experiment: Spectrophotometric nitrocefin hydrolysis inhibition assay, AmpC
Chain of AmpC β-lactamase (P00811 20-377): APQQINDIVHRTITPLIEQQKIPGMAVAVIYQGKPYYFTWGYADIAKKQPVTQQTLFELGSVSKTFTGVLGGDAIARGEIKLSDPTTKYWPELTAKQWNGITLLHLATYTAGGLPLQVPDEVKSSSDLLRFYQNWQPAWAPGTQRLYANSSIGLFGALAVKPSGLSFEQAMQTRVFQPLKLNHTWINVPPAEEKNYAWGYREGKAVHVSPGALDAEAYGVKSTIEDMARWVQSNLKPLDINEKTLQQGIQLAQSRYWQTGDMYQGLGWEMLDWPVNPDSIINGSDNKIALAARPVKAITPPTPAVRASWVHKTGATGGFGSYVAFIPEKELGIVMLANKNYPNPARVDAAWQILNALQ

[6] = target: IMP-1 beta-lactamase (Serratia marcescens, UniProt P52699); experiment: Spectrophotometric nitrocefin hydrolysis inhibition assay, IMP-1
Chain of IMP-1 beta-lactamase (P52699 19-246, looked up): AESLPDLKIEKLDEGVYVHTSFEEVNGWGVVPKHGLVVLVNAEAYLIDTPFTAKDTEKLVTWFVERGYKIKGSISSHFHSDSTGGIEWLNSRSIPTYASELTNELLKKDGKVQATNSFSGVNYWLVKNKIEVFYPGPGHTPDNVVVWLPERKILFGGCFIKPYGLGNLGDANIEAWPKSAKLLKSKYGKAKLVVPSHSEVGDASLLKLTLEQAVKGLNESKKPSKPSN

[7] = target: wild type TEM-1 β-lactamase (Escherichia coli, UniProt P62593); experiment: Spectrophotometric nitrocefin hydrolysis inhibition assay, TEM-1; format: biochemical; conditions: for IC50: inhibition values are IC50 unless noted
Chain of wild type TEM-1 β-lactamase (P62593 24-286 limits assumed): as the sequence (P62593 24-286 limits assumed) above
Description: (§1) The inhibition of beta lactamase was determined spectrophotometrically. Beta lactamase activity was followed by measuring the change in absorbance upon hydrolysis of nitrocefin, [3-(2,4-dinitrostyryl)-(6R,7R)-7-(2-thienylacetamido)-ceph-3-em-4-carboxylic acid, E-isomer], (Calbiochem, San Diego, Calif., USA) at 486 nm. Inhibition constants (Ki) for the inhibitors are obtained at the desired temperature and solvent conditions by measuring the rate of substrate hydrolysis at increasing amounts of inhibitors. All inhibition assays were performed at 25° C. in 50 mM sodium phosphate, 5% DMSO, pH 7.0, keeping the enzyme concentration at 5 nM and the substrate concentration at 167 μM. Reaction was started by addition of substrate to the corresponding mixture of enzyme and inhibitor preincubated for 10 minutes.

[8] = test system: Methicillin-resistant (MRSA) Staphylococcus aureus; experiment: Oxacillin MIC in presence of compound, MRSA; format: cell-based
[9] = test system: Vancomycin-resistant (VRSA) Staphylococcus aureus; experiment: Oxacillin MIC in presence of compound, VRSA; format: cell-based
[10] = target: TEM-1 β-lactamase, Drug Resistant Mutants and AmpC β-lactamase; experiment: Average Ki over TEM-1, drug resistant mutants and AmpC; format: biochemical; conditions: mean over TEM-1, TEM-12, TEM-17, TEM-30, TEM-40, AmpC
Description: as §1

[11] = test system: AmpC; conditions: read-out: Inhibitory Potency (IC50) AmpC; cited from earlier work
[12] = Oxacillin MIC with compound at 4 μg/mL

SMILES | solubility [1] [µM] | half-life [2] [min] | Kd [3] | IC50 [5] [nM] | IC50 [6] [nM] | IC50 [7] [nM] | other results
COc1ccc(NS(=O)(=O)/C=C/c2cccc(Cl)c2)cc1OCc1cccc(Cl)c1 [ef-rs-04-091] | 19 (≈ 8.82 µg/mL) | 70 ± 8 | 4080 nM and 4260 nM | 671 ± 238 | 347 ± 43 |  | TEM-1 ΔH [4]: +1.75 kcal/mol
O=S(=O)(/C=C/c1cccc(Cl)c1)Nc1cccc(OCc2cccc(F)c2)c1 [ef-rs-09-012] | 7 (≈ 2.93 µg/mL) | 81 ± 14 | 49 nM and 52 nM | 846 ± 100 | 157 ± 12 | 523 ± 84 | 
COc1cccc(COc2cc(NS(=O)(=O)/C=C/c3cccc(Cl)c3)ccc2OC)c1 [ef-rs-09-018] | 50 (≈ 23 µg/mL) | 22 ± 6 | 348 ± 53 nM | 1070 ± 360 | 256 ± 33 | 702 ± 91 | 
O=S(=O)(/C=C/c1cccc(Cl)c1)Nc1cccc(OCc2cccc(Cl)c2)c1 [ef-rs-08-048] | 19 (≈ 8.25 µg/mL) | 120 ± 10 | 113 nM and 252 nM | 477 ± 59 | 487 ± 90 |  | MIC (MRSA) [4 μg/mL] [8, 12]: 2; reduction of Oxacillin MIC ([8]; compound at 4 μg/mL): 8 fold; MIC (VRSA) [4 μg/ml] [9, 12]: 0.25; reduction of Oxacillin MIC ([9]; compound at 4 μg/mL): 8 fold
O=S(=O)(/C=C/c1cccc(C(F)(F)F)c1)Nc1cccc(-c2nnn(Cc3cccc(Cl)c3)n2)c1 [ef-rs-05-076] |  |  |  |  |  |  | Ki [10]: 176 nM; Ki [5]: 80 nM
COc1ccc(NS(=O)(=O)/C=C/c2cccc([N+](=O)[O-])c2)cc1OCc1cccc(Cl)c1 [ef-rs-05-080] | 3 (≈ 1.42 µg/mL) | 37 ± 4 | 4580 nM and 5350 nM | 563 ± 63 | 1100 ± 40 |  | 
O=S(=O)(/C=C/c1cccc(Cl)c1)Nc1ccc(OCc2cccc(Cl)c2)cc1 [ef-rs-09-030] | 6 (≈ 2.61 µg/mL) |  | 301 ± 65 nM | 553 ± 58 | 63 ± 8 | 85 ± 21 | 
O=C(O)[C@H]1/C(=C/CO)O[C@@H]2CC(=O)N21 [Clavulanic Acid] |  |  |  |  |  |  | IC50 [11]: ≥ 59000 nM
O=S(=O)(/C=C/c1cccc(Cl)c1)N(Cc1cccc(Cl)c1)c1cccc(Cl)c1 [ef-rs-03-075] |  |  |  |  |  |  | Ki ([7]; 25° C., 50 mM sodium phosphate, 5% DMSO, pH 7.0, nitrocefin 167 μM, read-out: Ki TEM-1 (WT)): 82 ± 12 nM; Ki [6]: 496 ± 57 nM
O=S(=O)(/C=C/c1cccc(Br)c1)Nc1cccc(-c2nnn(Cc3cccc(Cl)c3)n2)c1 |  |  |  |  |  |  | mode of inhibition of TEM-1 beta-lactamase ([7]; double reciprocal plot, FIG. 3): competitive inhibition; Ki [10]: 362 nM; Ki [5]: 182 nM
COc1ccc(NS(=O)(=O)/C=C/c2cccc(Cl)c2)cc1O [ef-rs-09-014] | 450 (≈ 153 µg/mL) | < 5 | 2510 ± 1780 nM | 3750 ± 500 | 4690 ± 270 | 2470 ± 50 | 
CC1(C)[C@H](C(=O)O)N2C(=O)C[C@H]2S1(=O)=O [Sulbactam] |  |  |  |  |  |  | IC50 [11]: ≥ 3800 nM
O=S(=O)(/C=C/c1cccc(Cl)c1)N(Cc1cccc(Cl)c1)c1cccc(OCc2cccc(Cl)c2)c1 [ef-rs-08-052, (E)-N-(3-chlorobenzyl)-N-(3-(3-chlorobenzyloxy)phenyl)-2-(3-chlorophenyl)ethenesulfonamide] |  |  |  |  |  |  | Ki [5]: 67 nM; Ki [6]: 203 ± 51 nM
COc1cc(NS(=O)(=O)/C=C/c2cccc(Cl)c2)ccc1OCc1cccc(Cl)c1 [ef-rs-09-029] | 8 (≈ 3.71 µg/mL) |  | 484 ± 76 nM | 706 ± 66 | 171 ± 20 | 406 ± 77 | 
COc1cccc(/C=C/S(=O)(=O)Nc2cccc(OCc3cccc(Cl)c3)c2)c1 [ef-rs-05-054] | 6 (≈ 2.58 µg/mL) | 59 ± 6 | 97.5 nM and 202 nM | 555 ± 36 | 734 ± 106 |  | TEM-1 ΔH [4]: +2.32 kcal/mol
